# Experimental data: patent publication US20230357761A1, “ACTIVATORS OF TYPE III CAS PROTEINS” (THE REGENTS OF THE UNIVERSITY OF CALIFORNIA, priority 2020, published 2023)
# [5mC] = 5-methylcytosine; d = 2'-deoxy (DNA); r = 2'-OH (RNA); f = 2'-fluoro
# Key:
# [1] = molecular target: T1, T. thermophilus Csm6 (TtCsm6) (Thermus thermophilus, UniProt Q53W17); test: Cas13-coupled TtCsm6 activation assay, fluorescence of cleaved polyC RNA reporter; format: biochemical; details: for kinetics of development of fluorescent signal over time / duration and level of fluorescent signal: FIG. 2; for kinetics of development of fluorescent signal over time: 20 nM Cas13 RNP, 100 nM Csm6, 100 pM Cas13 activator [R010], 200 nM C5 reporter, 2 μM Type III accessory nuclease activator, IGI buffer, versus unmodified NCR142; for duration and level of fluorescent signal: same reaction as E1, versus unmodified NCR142, which was used at 4 times the concentration
# T1 sequence (Q53W17 1-464): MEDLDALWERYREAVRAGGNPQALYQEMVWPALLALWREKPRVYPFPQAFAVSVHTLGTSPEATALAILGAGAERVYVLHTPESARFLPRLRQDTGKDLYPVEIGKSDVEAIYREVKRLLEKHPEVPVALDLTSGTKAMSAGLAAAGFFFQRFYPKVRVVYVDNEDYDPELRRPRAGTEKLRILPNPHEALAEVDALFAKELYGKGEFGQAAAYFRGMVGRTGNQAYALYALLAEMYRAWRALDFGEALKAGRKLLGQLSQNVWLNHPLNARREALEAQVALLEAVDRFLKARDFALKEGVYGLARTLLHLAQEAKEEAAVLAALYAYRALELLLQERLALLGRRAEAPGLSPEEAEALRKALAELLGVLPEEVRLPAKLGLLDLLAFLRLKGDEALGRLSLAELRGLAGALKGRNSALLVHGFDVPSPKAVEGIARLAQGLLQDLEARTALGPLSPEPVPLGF
# Experimental: To test the impact of modifications of the Type III accessory nuclease activators, the following system was used (see FIG. 1). Cas13 ribonucleoprotein complexes (RNP) were assembled using LbuCas13 protein and guides at room temperature at a concentration of 0.5 μM Cas13 in 1× reaction buffer.
# In some experiments, the 1× reaction buffer comprised 20 mM HEPES, pH 6.8, 50 mM KCl, 5 mM MgCl2, 100 μg/mL BSA, 0.01% Igepal CA, 2% glycerol (“IGI buffer”) while in other experiments, the 1× reaction buffer comprised 20 mM HEPES, pH 6.8, 50 mM KCl, 5 mM MgCl2, 5% glycerol (“Ott buffer”). Once assembled, the RNPs were diluted with 1× reaction buffer to 10× the final [RNP] in the reaction (200 nM for 20 nM final concentration). Concentrated T. thermophilus Csm6 (TtCsm6) protein was also diluted to 10× the concentration (1 μM for 100 nM final concentration) in 1× reaction buffer. The activator mix was assembled on ice, containing 20× concentration of the Cas13 activator, 20× concentration of the secondary Csm6 activator, and 10× of a polyC RNA reporter (6-FAM-CCCCC-Iowa Black®, Integrated DNA Technologies) in 1× reaction buffer. The proteins were then mixed together to make an RNP/protein master mix in 1× reaction buffer. Volumes to use were determined such that 15 μL of this master mix was added to 5 μL of the activator mix for a final volume of 20 μL for the reaction. Reactions were performed in triplicate. The RNP master mix was equilibrated at room temperature for 10-15 minutes. 15 μL of the RNP/protein master mix was then added to 5 μL of the activator master mix (pre-loaded into 384-well low-volume flat-bottom black assay plate, Corning) to start the reaction. Fluorescence of the unquenched 6-FAM group (excitation 485 nm, emission 535 or 528 nm) was monitored over 1-2 hours (one reading every 1.5 or 2 min) in a Tecan or Biotek Cytation 5 plate reader at 37° C. An increase in fluorescence correlates with dequenching of the FAM due to RNA cleavage by TtCsm6.
# NCR142, NCR372, NCR373 and NCR374 were compared in the system described above. Specifically, 20 nM Cas13 RNP (assembled at a ratio of 2:1 guide to protein), 100 nM Csm6, 100 pM Cas13 activator [R010]], 200 nM C5 RNA reporter (i.e., 5′-6-FAM-CCCCC-Iowa Black-3′, Integrated DNA Technologies), 2 μM Type III accessory nuclease activator, 1×IGI buffer were used, with the experiment monitored on a Tecan Spark.
# Next, several different 2′-deoxy modified Type III accessory nuclease activators were compared where the activators had 1 to 3 modifications and the modifications were in different locations (see Table 3 and FIG. 4). In these experiments, 20 nM Cas13 RNPs using a guide, GJK073, targeting a short synthetic RNA target, GJK075, was used (see Table 2). In addition, 100 nM Csm6 was used, plus 0 to 200 pM Cas13 activator (GJK075), 2 μM Csm6 activator, 200 nM C5 reporter, and Cas13 1× buffer (IGI). The experiments were carried out at 37° C. in low volume flat-bottom black plates and fluorescence was measured on a Biotek Cytation 5.
# The NCR497 activator was also tested over a range of Type III accessory nuclease activator concentrations and Type VI nuclease activator concentrations. In these experiments, 20 nM Cas13 RNPs comprising the NCR316 guide at a ratio of 2:1 protein to guide were used. In addition, 100 nM TtCsm6 and 200 nM C5 reporter was used where the reaction was carried out in low-volume, flat-bottom plates at 37° C. analyzed on a Biotek citation 5. Type VI nuclease activator (aNCR316) was used at 2 pM or 200 pM concentrations.
# A Type III accessory nuclease activator comprising a single 2′-fluoro modified nucleotide was also modified to create an activator with a single cleavage location for the Cas13 trans nuclease activity. In this Type III accessory nuclease activator, the poly U stretch was replaced with a single U nucleotide followed by C nucleotides. […]
# Csm6 = molecular target: T2, Csm6 (Thermus thermophilus, UniProt Q53W17); test: Sensitivity of Cas13 RNA detection with and without Csm6 and its Type III accessory nuclease activator; format: biochemical, T. thermophilus; details: 37° C.
# T2 sequence (Q53W17 1-464): T1 sequence (Q53W17 1-464)
# Experimental: In some experiments, the 1× reaction buffer comprised 20 mM HEPES, pH 6.8, 50 mM KCl, 5 mM MgCl2, 100 μg/mL BSA, 0.01% Igepal CA, 2% glycerol (“IGI buffer”) while in other experiments, the 1× reaction buffer comprised 20 mM HEPES, pH 6.8, 50 mM KCl, 5 mM MgCl2, 5% glycerol (“Ott buffer”). Once assembled, the RNPs were diluted with 1× reaction buffer to 10× the final [RNP] in the reaction (200 nM for 20 nM final concentration). Concentrated T. thermophilus Csm6 (TtCsm6) protein was also diluted to 10× the concentration (1 μM for 100 nM final concentration) in 1× reaction buffer. The activator mix was assembled on ice, containing 20× concentration of the Cas13 activator, 20× concentration of the secondary Csm6 activator, and 10× of a polyC RNA reporter (6-FAM-CCCCC-Iowa Black®, Integrated DNA Technologies) in 1× reaction buffer. The proteins were then mixed together to make an RNP/protein master mix in 1× reaction buffer. Volumes to use were determined such that 15 μL of this master mix was added to 5 μL of the activator mix for a final volume of 20 μL for the reaction. […] Fluorescence of the unquenched 6-FAM group (excitation 485 nm, emission 535 or 528 nm) was monitored over 1-2 hours (one reading every 1.5 or 2 min) in a Tecan or Biotek Cytation 5 plate reader at 37° C. An increase in fluorescence correlates with dequenching of the FAM due to RNA cleavage by TtCsm6. […]
substance,measurement,setting,value
"AAdAAUUUUUU (AAAAUUUUUU; sugars from the 5' end r2 d1 r7, backbone not given here) [NCR654]","kinetics and signal, 2′-deoxy modified activators","[1]; FIG. 4, guide GJK073, 0 to 200 pM Cas13 activator GJK075, 2 μM Csm6 activator, 37° C., versus unmodified activators",rapid kinetics and were able to achieve a high and stable signal
"AfAAAUCC (metdC) (metdc) C (AAAAUCCCCC; sugars from the 5' end r1 f1 r5 d2 r1, [5mC] at 8, 9, backbone not given here) [NCR690]",activity of the system,"[1]; FIGS. 8 and 9, activator at 2, 0.2 and 0.1 μM, Cas13 activator at 200 or 2 pM",robust activity
same,background signal,"[1]; FIGS. 8 and 9, compared to NCR497 at the same concentrations",higher background signal compared to the NCR497
"AfAAAUUUUUU (AAAAUUUUUU; sugars from the 5' end r1 f1 r8, backbone not given here) [NCR497]","kinetics, 2′-fluoro modified activators",[1]; FIG. 5,rapid and stable kinetics
same,background signal (0 pM Cas13 activator curves),"[1]; FIG. 5, compared to the 2′-deoxy modified activators",decreased background signal
same,signal in the reaction,"[1]; FIGS. 6 and 7, guide NCR316, 2 pM Type VI nuclease activator aNCR316, versus NCR142 at 2 pM or 200 pM",better signal
same,limit of detection of the Cas13 activator,"Csm6; 50 nM Cas13 RNP (guides NCR604 and NCR612), 100 nM Csm6, 2 μM NCR497, gblock7 transcript 0-20 pM, Ott buffer",approximately 2 fM
same,increase in sensitivity when Csm6 reagents were added to the Cas13 detection system,"Csm6; FIG. 10, 200 nM Cas13 RNP (guide NCR316) alone vs plus 100 nM Csm6 and 2 μM NCR497, aNCR316 200 aM to 200 pM, IGI buffer",100 fold
"dAdAdAAUUUUUU (AAAAUUUUUU; sugars from the 5' end d3 r7, backbone not given here) [NCR373]",kinetics of development of fluorescent signal over time,[1],slower kinetics than the unmodified Type III accessory nuclease activator
same,duration and level of fluorescent signal,[1],longer lived and reached higher levels than the unmodified activator
"fAfAfAAUUUUUU (AAAAUUUUUU; sugars from the 5' end f3 r7, backbone not given here) [NCR374]",kinetics of development of fluorescent signal over time,[1],slower kinetics than the unmodified Type III accessory nuclease activator
same,duration and level of fluorescent signal,[1],longer lived and reached higher levels than the unmodified activator
